Data published in patent US8318941B2, “Pyridone/hydroxypyridine 11-beta hydroxysteroid dehydrogenase type I inhibitors” (Bristol-Myers Squibb Company, priority 2006, dated 2012).

Molecular target: T1, 11beta-HSD1 (Homo sapiens, UniProt P28845)
Test: not given
Parameters: host or cells: patients (liver), in vivo
Details: patients with type 2 diabetes, seven day treatment, versus placebo; cited from earlier work

T1 sequence (P28845 whole entry): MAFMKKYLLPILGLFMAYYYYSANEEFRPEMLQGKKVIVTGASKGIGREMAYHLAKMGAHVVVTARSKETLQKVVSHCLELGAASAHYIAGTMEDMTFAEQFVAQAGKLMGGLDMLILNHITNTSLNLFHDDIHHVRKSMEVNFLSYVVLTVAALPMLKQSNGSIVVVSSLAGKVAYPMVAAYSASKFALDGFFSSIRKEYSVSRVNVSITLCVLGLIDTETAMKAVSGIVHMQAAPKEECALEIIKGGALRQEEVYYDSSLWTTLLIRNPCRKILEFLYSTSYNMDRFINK

Molecule | hepatic glucose production
CC1(C)[C@@H](OC(=O)CCC(=O)O)CC[C@]2(C)[C@H]3C(=O)C=C4[C@@H]5C[C@@](C)(C(=O)O)CC[C@]5(C)CC[C@@]4(C)[C@]3(C)CC[C@@H]12 [carbenoxolone] | decrease in hepatic glucose production

Molecular target: T1, 11beta-HSD1
Test: In vitro inhibition of recombinant human 11beta-HSD1 (microsomal Scintillation Proximity Assay)
Assay type: biochemical
Parameters: made in house; microsomal fraction used as enzyme source
Details: microsomes from HEK 293 EBNA cells, 250 nM [3H]-cortisone, 500 μM NADPH, pH 6.5, room temperature
Experimental: The in vitro inhibition of recombinant human 11beta-HSD1 was determined as follows.
Cells were grown in DMEM (high glucose) containing MEM non-essential amino acids, L-glutamine, hygromycine B (200 ug/ml), and G418(200 ug/ml). The cell pellets were homogenized, and the microsomal fraction was obtained by differential centrifugation. 11beta-HSD1 over expressed microsomes were used as the enzyme source for the Scintillation Proximity Assay (SPA). […] The reaction was terminated with the addition of 1 mM 18β-glycerrhentic acid. SPA reagent mixture (YSi anti-rabbit IgG, anti-cortisol antibody in 50 mM Tris, pH 8.0 containing 1% CHAPS and 1% glycerol) was added and the reaction was further incubated at room temperature over night and counted in TopCount. […]

Molecule | IC50 [nM]
N#Cc1ccccc1CSc1nc(O)c(Cl)c2ccc(Cl)cc12 [Example 132] | 2.26
N#Cc1c(O)nc(SCc2cc(F)ccc2F)c2cc(F)ccc12 [Example 175] | 2.58
Oc1nc(SCc2cccc(Cl)c2)c2ccccc2c1Cl [Example 115] | 780
N#Cc1ccccc1CSc1nc(O)c(Cl)c2ccccc12 [Example 130] | 2.7
N#Cc1c(O)nc(SCc2cccnc2Cl)c2c1CCCC2 [Example 32] | 2.73
O=S(=O)(Cc1cccc(Cl)c1)c1nc(O)c(Cl)c2ccccc12 [Example 118] | 530
NC(=O)c1c(O)nc(SCc2ccccc2Cl)c2c1CCCC2 [Example 3, 1-(2-Chlorobenzylthio)-3-hydroxy-5,6,7,8-tetrahydroisoquinoline-4-carboxamide] | > 10000
N#Cc1cccc(Cl)c1CSc1nc(O)c(C#N)c2ccc(F)cc12 [Example 181] | 3
N#Cc1ccccc1-c1c(O)nc(SCc2ccccc2Cl)c2c1CCCC2 [Example 292] | 288
O=C(O)c1c(O)nc(SCc2ccccc2Cl)c2c1CCCC2 [Example 6, 1-(2-Chlorobenzylthio)-3-hydroxy-5,6,7,8-tetrahydroisoquinoline-4-carboxylic acid] | 470
N#Cc1c(O)nc(SCc2cnccc2Cl)c2cc(F)ccc12 [Example 164] | 2.73
N#Cc1ccncc1CSc1nc(O)c(C#N)c2ccc(F)cc12 [Example 170] | 1.49
N#Cc1c(O)nc(SCc2ccccc2Cl)c2c1CCNC2 [Example 35] | 460
Oc1cc2c(c(SCc3ccccc3Cl)n1)N1CCC2CC1 [Example 29] | > 10000

Same assay, conditions: read-out: IC50 (concentration of compound required for 50% inhibition of cortisol formation); microsomes from HEK 293 EBNA cells, 250 nM [3H]-cortisone, 500 μM NADPH, pH 6.5, room temperature

Molecule | IC50 [nM]
4,7-Dichloro-1-(2-chlorobenzylthio)isoquinolin-3-ol [Example 109] | 671
